Source: article PMC11555678, “Improved Broad Spectrum Antifungal Drug Synergies with Cryptomycin, a Cdc50-Inspired Antifungal Peptide” (ACS Infectious Diseases, 2024)

Legend:
C. neoformans cdc50Δ = assay: microbe, parasite or virus in culture; type: cell-based, Cryptococcus neoformans; conditions: Table S1; unit and conditions not given (MICs elsewhere in μg/mL)
Protocol: (§1) All microdilution assays with fungi were carried out in accordance with CLSI protocols from M27 for yeasts and M38 for filamentous fungi, respectively, unless otherwise specified.[64],[65] Briefly, 96-well plates were charged with RPMI1640 media, with operating volume in the first column, 200 μL, and half operating volume, 100 μL, in the remaining wells. Drug stock solution in DMSO was aliquoted into the first well in each row. Half of the volume in the dosed well was serially diluted 2-fold until column 11. Column 11 was used as the negative growth control, and column 12 was used as the positive growth control. ON yeast cultures in YPD were washed twice in DD-H2O, resuspended in PBS, and adjusted to 5000 cfu/mL in RPMI. The 96-well plate was inoculated with 100 μL aliquots of cell suspension per well. Plates were incubated at 37 °C for 2 days.

C. glabrata 2001 = assay: microbe, parasite or virus in culture; type: cell-based, Candida glabrata; conditions: Table S1; unit and conditions not given (MICs elsewhere in μg/mL)
Protocol: as §1

C. neoformans H99 [1] = assay: microbe, parasite or virus in culture; type: cell-based, Cryptococcus neoformans; conditions: Table S1; unit and conditions not given (MICs elsewhere in μg/mL)
Protocol: as §1

C. albicans SC5413 = assay: microbe, parasite or virus in culture; type: cell-based, Candida albicans; conditions: Table S1; unit and conditions not given (MICs elsewhere in μg/mL)
Protocol: as §1

C. neoformans H99 [2] = type: cell-based, Cryptococcus neoformans; conditions: (FITC)KKOO in combination with AMB
Protocol: as §1, with “Plates were incubated at 37 °C for 2 days.” left out
To assess drug synergy, the initial media charged to the plate contained the peptide at twice the final operating concentration; the remaining processing steps were identical to the MIC experiment. Upon addition of 100 μL of inoculant, the final operating concentration was achieved. Control MIC plates were prepared alongside drug synergy plates to account for the day-to-day variability in any individual MIC. FIC index is computed using eq 1. All MIC assays and drug synergy assays were completed with two technical replicates per 96-well plate and a minimum of two biological replicates per drug combination. If a difference in MIC between the two technical replicates on the plate were observed, only the higher concentration was reported as the MIC to reduce the possibility of type 1 error (false positive) [drawing 1] 1

Substance	MIC (SAR screen peptides) (C. neoformans cdc50Δ)	MIC (SAR screen peptides) (C. glabrata 2001)	MIC (SAR screen peptides) (C. neoformans H99 [1])	MIC (SAR screen peptides) (C. albicans SC5413)	FIC index (C. neoformans H99 [2])
WGGIKANYA [K6A, alanine substituted peptide]	> 128	> 128			
WGG{D-Ile}OONYA [I4i, D-Ile4 epimer of KKOO]	4	64	16	> 128	
WGGIAKNYA [K5A, alanine substituted peptide]	> 128	> 128			
WGGIOKNYA [K5O, single ornithine-substituted AW9-Ma derivative]	8	> 128	> 128		
WGGIOONY{D-Ala} [A9a, D-Ala9 epimer of KKOO]	4	> 128	> 128	> 128	
WGGIKONYA [K6O, single ornithine-substituted AW9-Ma derivative]	4	32	32	32	
{D-Trp}GGIOONYA [W1w, D-Trp1 epimer of KKOO]	4	32	16	> 128	
WGGIOO{D-Asn}YA [N7n, D-Asn7 epimer of KKOO]	8	> 128	32	> 128	
WGGIOONYA [KKOO-NHMe, C′ methylamide version of KKOO]	4	16	8	16	
Myristic acid {Dap(FITC)}WGGIOONYA [(FITC)KKOO, FITC labeled version of KKOO]	128		> 128		< 0.5
WGGIAANYA [KKAA, alanine substituted peptide]	> 128	> 128			
W{Hyp}GIOONYA [G2HYP, hydroxyproline at position 2, C′ NH2]	4	16	8	16	
WGGIO{D-Orn}NYA [O6o, D-Orn6 epimer of KKOO]	4	> 128	16	> 128	
